From patent US8318736B2, “HIV inhibiting 5,6-substituted pyrimidines” (Janssen R&D Ireland, priority 2006, dated 2012)

How the values were obtained:
[1] = test system: HIV strain IIIB (wild type); assay: microbe, parasite or virus in culture; settings: for pSI (IIIB) (-log SI; SI = ratio of CC50 to EC50): strain IIIB, CC50 in mock-infected MT4 CMV-EGFP cells; for IIIB pEC50 (-log EC50): wild type HIV strain IIIB, MT4 LTR-EGFP cells, three days after infection
Procedure: Compounds of the invention were tested for their potency against wild type virus and clinically isolated HIV strains harboring one or more mutations associated with resistance to reverse transcriptase inhibitors. Antiviral activity was evaluated using a cellular assay performed according to the following procedure.
The human T-cell line MT4 was engineered with Green Fluorescent Protein (GFP) and a HIV-specific promoter, HIV-1 long terminal repeat (LTR). This cell line, designated MT4 LTR-EGFP, can be used for the in vitro evaluation of anti-HIV activity of investigational compounds. In HIV-1 infected cells, the Tat protein is produced, which upregulates the LTR promotor and eventually leads to stimulation of the GFP reporter production, allowing to measure ongoing HIV-infection fluorometrically.
Analogously, MT4 cells were engineered with GFP and the constitutional cytomegalovirus (CMV) promotor. This cell line was designated MT4 CMV-EGFP, and can be used for the in vitro evaluation of cytotoxicity of investigational compounds. […] Cytotoxic investigational compounds reduce GFP levels of mock-infected MT4 CMV-EGFP cells.
The ratio of CC50 to EC50 is defined as the selectivity index (SI) and is an indication of the selectivity of the anti-HIV activity of the inhibitor. The ultimate monitoring of HIV-1 infection and cytotoxicity was done using a scanning microscope. […] Measurements were done before cell necrosis, which usually takes place about five days after infection, in particular measurements were performed three days after infection.
The columns IIIB, L100I, etc. in the table list the pEC50 (−log EC50) values against various strains IIIB, L100I, etc.; pSI lists the −log SI values.
Strain IIIB is wild type HIV strain.

HIV strain L100I + K103N = assay: microbe, parasite or virus in culture; assay type: cell-based, HIV-1; settings: L100I + K103N strain; MT4 LTR-EGFP cells
Description: (§1) Image analysis allowed very sensitive detection of viral infection.

[2] = target: HIV strain MDR (L100I, K103N, Y181C, E138G, V1791, L2214F, V278V/I and A327A/V in HIV reverse transcriptase); assay: microbe, parasite or virus in culture; assay type: cell-based, HIV-1; settings: MDR strain; MT4 LTR-EGFP cells
Description: as §1
“MDR” refers to a strain that contains mutations L100I, K103N, Y181C, E138G, V1791, L2214F, V278V/I and A327A/V in HIV reverse transcriptase.

Row | Compound | pSI (IIIB) (-log SI; SI = ratio of CC50 to EC50) [1] | IIIB pEC50 (-log EC50) [1] | L100I + K103N pEC50 (-log EC50) (HIV strain L100I + K103N) | MDR pEC50 (-log EC50) [2] | melting point [°C]
1 | COCc1nc(Nc2ccc(C#N)cc2)nc(Nc2c(C)cc(C=CC#N)cc2C)c1C(=O)N1CCCC(C(N)=O)C1 (mixture of isomers) [Compound 22] | >2.66 | 7.27 | 6.22 | 5.64 | –
2 | COCc1nc(Nc2ccc(C#N)cc2)nc(Nc2c(C)cc(/C=C/C#N)cc2C)c1C(=O)NCCN(C)C [Compound 13] | 3.32 | 8.41 | 6.81 | 5.69 | –
3 | COCc1nc(Nc2ccc(C#N)cc2)nc(Nc2c(C)cc(C=CC#N)cc2C)c1C(=O)N1CCC(O)CC1 (mixture of isomers) [Compound 27] | >3.61 | 8.21 | 5.79 | 5.21 | –
4 | C=C(OCC)c1c(COC)nc(Nc2ccc(C#N)cc2)nc1Nc1ccc(/C=C/C#N)cc1 | – | – | – | – | 102
5 | COCc1nc(Nc2ccc(C#N)cc2)nc(Nc2c(C)cc(C=CC#N)cc2C)c1C(=O)NCCC#N (mixture of isomers) [Compound 16] | 4.22 | 8.90 | 7.55 | 7.03 | –
6 | COCCNC(=O)c1c(COC)nc(Nc2ccc(C#N)cc2)nc1Nc1c(C)cc(C=CC#N)cc1C (mixture of isomers) [Compound 10] | 3.44 | 8.46 | 8.10 | 7.30 | –
7 | COCc1nc(Nc2ccc(C#N)cc2)nc(Nc2ccc(/C=C/C#N)cc2)c1C#Cc1cccnc1 | – | – | – | – | 210
8 | COCc1nc(Nc2ccc(C#N)cc2)nc(Oc2c(C)cc(C=C(C)C#N)cc2C)c1C(=O)NCc1ccncc1 (mixture of isomers) [Compound 34] | 3.22 | 8.38 | 6.49 | 5.81 | –
9 | COCc1nc(Nc2ccc(C#N)cc2)nc(Nc2ccc(/C=C/C#N)cc2)c1/C=C/c1ccc(C)cc1 | – | – | – | – | 139
10 | COCc1nc(Nc2ccc(C#N)cc2)nc(Oc2c(C)cc(C=CC#N)cc2C)c1C(=O)NCc1ccncc1 (mixture of isomers) [Compound 33] | 3.54 | 8.40 | 7.03 | 5.91 | –
11 | COCc1nc(Nc2ccc(C#N)cc2)nc(Nc2c(C)cc(/C=C/C#N)cc2C)c1C(=O)NCC(OC)OC [Compound 19] | 3.83 | 8.59 | 7.38 | 6.97 | –
12 | COCc1nc(Nc2ccc(C#N)cc2)nc(Nc2c(C)cc(/C=C/C#N)cc2C)c1C(=O)NCCc1ccccn1 [Compound 15] | 3.52 | 8.55 | 7.24 | 6.43 | –
13 | COCc1nc(Nc2ccc(C#N)cc2)nc(Nc2c(C)cc(C=CC#N)cc2C)c1C(=O)N(C)CCN(C)C (mixture of isomers) [Compound 21] | 2.53 | 7.49 | 6.31 | 5.44 | –
14 | COCc1nc(Nc2ccc(C#N)cc2)nc(Nc2c(C)cc(/C=C/C#N)cc2C)c1C(=O)NCCc1cccs1 [Compound 30] | >3.24 | 7.84 | 6.67 | 5.79 | –
15 | COCc1nc(Nc2ccc(C#N)cc2)nc(Nc2c(C)cc(C=CC#N)cc2C)c1C(=O)NCc1cccnc1 (mixture of isomers) [Compound 8] | 3.13 | 8.54 | 7.57 | 7.07 | –
